Assay results published in ChEMBL document CHEMBL1142279, “Optimization of 2,3,5-trisubstituted pyridine derivatives as potent allosteric Akt1 and Akt2 inhibitors” (Bioorg Med Chem Lett, 2008).

How the values were obtained:
[1] = target: RAC-alpha serine/threonine-protein kinase (Homo sapiens) (UniProt P31749); test: Inhibition of human recombinant Akt1
[2] = target: RAC-beta serine/threonine-protein kinase (Homo sapiens) (UniProt P31751); test: Inhibition of human recombinant Akt2
[3] = target: RAC-alpha serine/threonine-protein kinase (Homo sapiens) (UniProt P31749); test: Inhibition of Akt1 in human C33a cells; type: cell-based
[4] = target: RAC-beta serine/threonine-protein kinase (Homo sapiens) (UniProt P31751); test: Inhibition of Akt2 in human C33a cells; type: cell-based
[5] = Inhibition of SGK
[6] = Inhibition of PKA
[7] = Inhibition of PKC
[8] = target: Protein kinase C alpha type (Homo sapiens) (UniProt P17252); test: Inhibition of PKCalpha
[9] = Half life in dog at 0.25 mg/kg, iv; type: ADME, organism-based, Canis lupus familiaris; design: dose 0.25 mg/kg, route intravenous; conditions: in vivo
[10] = Clearance in dog at 0.25 mg/kg, iv; type: ADME, organism-based, Canis lupus familiaris; design: dose 0.25 mg/kg, route intravenous; conditions: in vivo
[11] = Volume of distribution at steady state in dog at 0.25 mg/kg, iv; type: ADME, organism-based, Canis lupus familiaris; design: dose 0.25 mg/kg, route intravenous; conditions: in vivo, read-out: Vdss
[12] = target: RAC-gamma serine/threonine-protein kinase (Homo sapiens) (UniProt Q9Y243); test: Inhibition of human recombinant Akt3
Sequence of RAC-gamma serine/threonine-protein kinase (Homo sapiens) (Q9Y243 whole entry): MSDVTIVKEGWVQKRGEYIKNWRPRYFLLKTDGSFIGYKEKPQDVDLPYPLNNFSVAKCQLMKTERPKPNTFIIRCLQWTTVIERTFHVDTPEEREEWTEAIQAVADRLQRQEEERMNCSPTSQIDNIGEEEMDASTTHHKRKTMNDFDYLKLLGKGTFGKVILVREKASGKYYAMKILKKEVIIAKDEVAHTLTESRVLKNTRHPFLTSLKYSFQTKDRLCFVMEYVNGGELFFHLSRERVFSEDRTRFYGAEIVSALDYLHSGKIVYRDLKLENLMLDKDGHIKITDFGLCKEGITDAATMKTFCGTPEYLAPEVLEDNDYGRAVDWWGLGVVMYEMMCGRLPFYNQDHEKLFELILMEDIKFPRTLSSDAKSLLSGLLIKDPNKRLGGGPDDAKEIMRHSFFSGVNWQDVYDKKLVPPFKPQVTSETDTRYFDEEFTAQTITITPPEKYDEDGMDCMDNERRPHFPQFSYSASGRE

Sequence of RAC-beta serine/threonine-protein kinase (Homo sapiens) (P31751 whole entry): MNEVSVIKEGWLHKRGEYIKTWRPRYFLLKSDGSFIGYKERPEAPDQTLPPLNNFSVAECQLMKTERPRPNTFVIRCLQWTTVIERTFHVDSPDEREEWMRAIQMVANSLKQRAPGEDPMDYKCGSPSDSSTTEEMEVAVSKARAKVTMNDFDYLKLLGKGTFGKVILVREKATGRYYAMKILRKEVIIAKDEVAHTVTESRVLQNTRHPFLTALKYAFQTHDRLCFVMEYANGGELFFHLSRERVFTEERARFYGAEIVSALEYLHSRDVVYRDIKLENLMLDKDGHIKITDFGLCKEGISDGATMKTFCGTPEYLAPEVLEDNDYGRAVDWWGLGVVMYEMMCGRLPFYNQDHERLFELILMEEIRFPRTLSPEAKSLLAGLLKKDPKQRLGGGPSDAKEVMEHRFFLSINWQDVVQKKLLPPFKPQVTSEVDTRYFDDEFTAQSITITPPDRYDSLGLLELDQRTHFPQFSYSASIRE
Sequence of RAC-alpha serine/threonine-protein kinase (Homo sapiens) (P31749 whole entry): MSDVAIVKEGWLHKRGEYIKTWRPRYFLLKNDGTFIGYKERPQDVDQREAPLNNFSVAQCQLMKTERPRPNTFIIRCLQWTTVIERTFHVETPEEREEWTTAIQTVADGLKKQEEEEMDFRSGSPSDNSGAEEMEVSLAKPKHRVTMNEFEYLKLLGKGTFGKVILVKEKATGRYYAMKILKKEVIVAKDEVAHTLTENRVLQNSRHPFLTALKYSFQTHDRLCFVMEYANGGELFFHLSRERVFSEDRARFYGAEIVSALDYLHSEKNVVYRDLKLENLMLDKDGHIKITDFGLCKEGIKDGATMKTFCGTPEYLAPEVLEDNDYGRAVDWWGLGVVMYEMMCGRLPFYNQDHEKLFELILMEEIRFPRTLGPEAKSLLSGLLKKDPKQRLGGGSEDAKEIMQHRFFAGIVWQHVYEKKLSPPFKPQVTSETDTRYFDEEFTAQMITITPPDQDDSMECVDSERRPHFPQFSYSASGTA

Row | Activity [1] | Activity [2] | Activity [3] | Activity [4] | IC50 [5] | IC50 [6] | IC50 [7] | IC50 [8] | half-life [9] | clearance [10] | Vd [11] | Structure (SMILES) | Activity [12]
1 | 95 nM | 28 nM | 734 nM | 300 nM | > 50 µM |  |  |  |  |  |  | Nc1nnc(-c2cnc(-c3ccc(CN4CCC(c5cc(-c6ccccn6)[nH]n5)CC4)cc3)c(-c3ccccc3)c2)s1 | 
2 | 123 nM | 38 nM | 407 nM | 153 nM | > 50 µM |  |  |  |  |  |  | Nc1nnc(-c2cnc(-c3ccc(CN4CCC(c5cc(-c6ccncc6)[nH]n5)CC4)cc3)c(-c3ccccc3)c2)s1 | 
3 | 126 nM | 22 nM | 621 nM | 416 nM | > 50 µM | > 10 µM | > 10 µM | > 10 µM | 3.62 h | 1.37 mL/min/kg | 0.41 L/kg | Nc1nnc(-c2cnc(-c3ccc(CN4CCC(n5ncc6c(N)ncnc65)CC4)cc3)c(-c3ccccc3)c2)s1 | 
4 | 172 nM | 51 nM | 1380 nM | 2030 nM | > 50 µM |  |  |  |  |  |  | Nc1nnc(-c2cnc(-c3ccc(CN4CCC(n5cc(-c6cnccn6)cn5)CC4)cc3)c(-c3ccccc3)c2)s1 | 
5 | 85 nM | 22 nM | 516 nM | 330 nM | > 50 µM |  |  |  |  |  |  | Nc1nnc(-c2cnc(-c3ccc(CN4CCC(c5n[nH]c(-c6ccccn6)n5)CC4)cc3)c(-c3ccccc3)c2)s1 | 
6 | 210 nM | 105 nM | > 50000 nM | > 50000 nM |  |  |  |  |  |  |  | Nc1ncnc2c1ncn2C1CCN(Cc2ccc(-c3ncc(-c4nnn[nH]4)cc3-c3ccccc3)cc2)CC1 | > 50 µM
7 | 264 nM | 64 nM | 1650 nM | 3240 nM | > 50 µM |  |  |  |  |  |  | Nc1ncnc2c1cnn2C1CCN(Cc2ccc(-c3ncc(-c4nccs4)cc3-c3ccccc3)cc2)CC1 | 
8 | 214 nM | 90 nM | 1350 nM | 1350 nM | > 50 µM |  |  |  |  |  |  | Nc1nnc(-c2cnc(-c3ccc(CN4CCC(n5cc(-c6ccccn6)cn5)CC4)cc3)c(-c3ccccc3)c2)s1 | 
9 | 434 nM | 73 nM | 12600 nM | 3960 nM | > 50 µM |  |  |  |  |  |  | Nc1nnc(-c2cnc(-c3ccc(CN4CCC(n5c(=O)[nH]c6ncccc65)CC4)cc3)c(-c3ccccc3)c2)s1 | 
10 | 182 nM | 101 nM | 890 nM | 666 nM | > 50 µM |  |  |  |  |  |  | Nc1ncnc2c1cnn2C1CCN(Cc2ccc(-c3ncc(-c4nc[nH]n4)cc3-c3ccccc3)cc2)CC1 | 
11 | 180 nM | 121 nM | 288 nM | 1060 nM | > 50 µM |  |  |  |  |  |  | Nc1ncnc2c1cnn2C1CCN(Cc2ccc(-c3ncc(-c4ncon4)cc3-c3ccccc3)cc2)CC1 | 
12 | 1630 nM | 370 nM | 10000 nM | 8110 nM |  |  |  |  |  |  |  | Nc1ncnc2c1cnn2C1CCN(Cc2ccc(-c3ncc(-c4ccccn4)cc3-c3ccccc3)cc2)CC1 | 
13 | 306 nM | 62 nM | 1950 nM | 3460 nM | > 50 µM |  |  |  |  |  |  | Nc1ncnc2c1cnn2C1CCN(Cc2ccc(-c3ncc(-c4ncccn4)cc3-c3ccccc3)cc2)CC1 | 
14 | 114 nM | 30 nM | 618 nM | 472 nM |  |  |  |  |  |  |  | Nc1nnc(-c2cnc(-c3ccc(CNCCC(=O)c4ccccc4N)cc3)c(-c3ccccc3)c2)s1 | 

Row | Structure (SMILES) | Activity [1] | Activity [2] | Activity [3] | Activity [4] | IC50 [5] | IC50 [6] | IC50 [7] | IC50 [8] | half-life [9] | clearance [10] | Vd [11] | Activity [12]
15 | N#Cc1cnc(-c2ccc(CN3CCC(n4c(=O)[nH]c5ccccc54)CC3)cc2)c(-c2ccccc2)c1 | 762 nM | 3140 nM | > 50000 nM | > 50000 nM |  |  |  |  |  |  |  | > 50 µM
16 | O=c1[nH]c2ccccc2n1C1CCN(Cc2ccc(-c3ncc(-c4nnn[nH]4)cc3-c3ccccc3)cc2)CC1 | 273 nM | 150 nM | > 50000 nM | > 50000 nM |  |  |  |  |  |  |  | > 50 µM
